Experimental data: a melting point compilation (Tetko et al.)
Starred links: 1 amine or outer side, 2 acyl side, 3 side chain; linkers in the order of their positions; H or OH if unused. Positions of bridges follow the written chain, without caps; N, C: chain ends. Non-standard residues stand in square brackets, D forms with d. Residues, ends and D or L forms follow the SMILES beside them. *: point of attachment. X6 = CCC(C)C(N[*:1])C(O)CC(=O)OC(C(=O)C(C)C(=O)[*:2])C(C)C; NMeY = CN[CH](Cc1ccc(O)cc1)C(=O)O; NMeL = CN[CH](CC(C)C)C(=O)O; Boc = CC(C)(C)OC(=O)*; Bn = c1ccc(C*)cc1

Row | SMILES | melting point
1 | CCC(C)CNC(=O)C(CC(O)C(CC(C)C)NC(=O)C(Cc1cscn1)NC(=O)C(CC(=O)N(C)C1CCCCC1)Cc1cccc2ccccc12)C(C)(C)O (mixture of isomers) | 187 to 190 °C
2 | Cc1ccc(O)c(Br)c1 | 16 °C
3 | Cc1cc(Cn2nnn(-c3cc(C(F)(F)F)cc(C(F)(F)F)c3)c2=O)ccc1N(C(=O)c1c(I)cccc1C(N)=O)C(C)(C)CS(C)=O (stereo not given) | 165 to 171 °C
4 | COC(=O)CNC(=O)[C@H](NC(=O)[C@@H](CSC(c1ccccc1)(c1ccccc1)c1ccccc1)NC(=O)[C@@H](C)NC(=O)OCC1c2ccccc2-c2ccccc21)C(C)C | 195 to 197 °C
5 | CCCCCCCCCCCCCCCCCCN(CCCCCCCCCCCCCCCCCC)C(=O)c1cc(NS(=O)(=O)c2ccc(Cl)nc2)c2ccccc2c1O | 80 to 83 °C
6 | O=C(OCc1ccc(OCCCCCCCCCCC2c3c(c4ccccc4c4ccccc34)-c3c2c2ccccc2c2ccccc32)cc1)c1cn(C2CC2)c2cc(F)c(F)cc2c1=O | 71 to 73 °C
7 | CCCCC(CC)CN1C(=O)C(=Cc2cc3c(s2)c2sc(-c4ccc(N(c5ccccc5)c5ccccc5)cc4)cc2n3CC(CC)CCCC)C(C)=C(C#N)C1=O (stereo not given) | 137 to 140 °C
8 | O=C(Oc1c(I)cc(I)c(Br)c1I)C(F)(F)C(F)(Br)C(F)(F)Br (stereo not given) | 56 to 57 °C
9 | COC(=O)C(CCNC(=O)c1ccccc1C(=O)O)Oc1c(Br)cc(-c2ccc(-c3c(Cc4ccccc4)sc4ccccc34)cc2)cc1Br (stereo not given) | 95 to 97 °C
10 | CC(C)(C)c1cc(-c2cc(C(C)(C)C)cc(C(C)(C)C)c2Op2oc3ccccc3c3ccccc3o2)c(Op2oc3ccccc3c3ccccc3o2)c(C(C)(C)C)c1 | 80 °C
11 | COc1cc(OC)c(C=CC(c2ccc(OC)c(CC(=O)O)c2)(S(N)(=O)=O)S(=O)(=O)C(C=Cc2c(OC)cc(OC)cc2OC)(c2ccc(OC)c(CC(=O)O)c2)S(N)(=O)=O)c(OC)c1 (stereo not given) | 180 to 184 °C
12 | CC(C)C[C@H](NC(=O)[C@H](Cc1c[nH]cn1)NC(=O)[C@H](Cc1cccc2ccccc12)NC(=O)OCc1ccccc1)[C@@H](O)CC(=O)NN1CCN(c2cccc(C(F)(F)F)c2)CC1 | 179 to 181 °C
13 | FC(F)(F)C(F)(F)C(F)(F)C(F)(F)C(F)(F)C(F)(F)c1nc2c(Br)sc(Br)c2nc1C(F)(F)C(F)(F)C(F)(F)C(F)(F)C(F)(F)C(F)(F)F | 46 to 47 °C
14 | CCCc1[nH]c2ccccc2c1C1(c2ccc(N(CC)CC)cc2OCCCCOc2cc(N(CC)CC)ccc2C2(c3c(CCC)[nH]c4ccccc34)OC(=O)c3ccccc32)OC(=O)c2ccccc21 (stereo not given) | 140 °C
15 | CCSC(=O)N(CC(C)C)CC(C)C | 6 °C
16 | COc1cc(OC)c(/C=C/C(c2ccc(OC)c(NC(=O)CO)c2)S(=O)(=O)C(/C=C/c2c(OC)cc(OC)cc2OC)c2ccc(OC)c(NC(=O)CO)c2)c(OC)c1 (stereo not given) | 174 to 176 °C
17 | N=C(NC(=O)OCc1ccccc1)N(CCCC(NC(=O)C(Cc1ccccc1)NC(=O)OCc1ccccc1)C(=O)Oc1cccc2ccccc12)C(=O)OCc1ccccc1 (stereo not given) | 125 to 130 °C

Row | SMILES | melting point
18 | CC(=O)OCCn1c([N+](=O)[O-])cnc1CO | 138 to 145 °C
19 | CC(C)[C@H](NC(=O)N(C)Cc1nc2ccccc2[nH]1)C(=O)N[C@@H](Cc1ccccc1)[C@H](O)[C@H](O)[C@H](Cc1ccccc1)NC(=O)[C@@H](NC(=O)N(C)Cc1nc2ccccc2[nH]1)C(C)C | 107 to 109 °C
20 | O=C1COc2cc3c(cc2O1)C1(CO3)CN(Cc2cnccn2)c2ccccc21 (stereo not given) | 216 to 218 °C
21 | O=S1(=O)c2ccccc2N(c2ccccc2)c2ccc(C=Cc3ccc(-c4ccc(C=Cc5ccc6c(c5)S(=O)(=O)c5ccccc5N6c5ccccc5)cc4)cc3)cc21 | 392 °C
22 | CCCCCCCCCCCCCCCCCCOC(=O)CSCc1cc(CSCC(=O)OCCCCCCCCCCCCCCCCCC)c(O)c(CSCC(=O)OCCCCCCCCCCCCCCCCCC)c1 | 70 to 71 °C
23 | CCc1nc(OC)c(NC(=O)N2CCN(c3cc(C)cc(C)c3)CC2)cc1C(=O)NC(C)C(=O)Nc1cc(CO)cc(Nc2c3ccccc3nc3c(OC)cccc23)c1 (stereo not given) | 178 to 179 °C
24 | CC(C)C[C@H](NC(=O)[C@H](C)NC(=O)[C@H](C)NC(=O)OC(C)(C)C)C(=O)NCCNc1ccc(NCCNC(=O)[C@H](CC(C)C)NC(=O)[C@H](C)NC(=O)[C@H](C)NC(=O)OC(C)(C)C)c2c1C(=O)c1c(O)ccc(O)c1C2=O | > 220 °C
25 | CC=C(C)C(=O)NC(c1ccccc1)C(O)C(=O)OC1CC2(O)C(OC(=O)c3ccccc3)C3C4(OC(C)=O)COC4CC(O)C3(C)C(=O)C(OC(C)=O)C(=C1C)C2(C)C (stereo not given) | 184 to 186 °C
26 | CCCCCCCCCCCCCCCCNc1ccc(C(=O)OCC(COC(=O)c2ccc(NCCCCCCCCCCCCCCCC)cc2)OC(=O)c2ccc(NCCCCCCCCCCCCCCCC)cc2)cc1 | 117 to 118 °C
27 | CC(CCC(=O)NCCNCCCNC(=O)CN1CCN(CC(=O)O)CCN(CC(=O)O)CCN(CC(=O)O)CC1)C1CCC2C3C(O)CC4CC(O)CCC4(C)C3CC(O)C12C (stereo not given) | 154 °C
28 | CC(=O)OCC1OC(OC2C(COC(C)=O)OC(OC3C(CO)OC(OCCBr)C(OC(=O)c4ccccc4)C3OC(=O)c3ccccc3)C(OC(C)=O)C2OC(C)=O)C(OC(C)=O)C(OC(C)=O)C1OC(C)=O (stereo not given) | 218 to 220 °C
29 | Cc1cc(Oc2ccc3nc(COc4ccc(CC(Nc5ccccc5C(=O)c5ccccc5)C(=O)O)cc4)n(C)c3c2)cc(C)c1NC(=O)Nc1ccc(C(F)(F)F)cc1 (stereo not given) | 165 to 172 °C
30 | CCOC(=O)c1cn(C23CC(C2)C3)c2c(F)c(F)c(F)cc2c1=O | 176 to 178 °C
31 | CC(C)[C@H](NC(=O)N(C)Cc1csc(NC(=O)OC(C)(C)C)n1)C(=O)N[C@@H](Cc1ccccc1)[C@H](O)[C@@H](O)[C@H](Cc1ccccc1)NC(=O)[C@@H](NC(=O)N(C)Cc1csc(NC(=O)OC(C)(C)C)n1)C(C)C | 138 to 140 °C
32 | O=C(CCl)Nc1nc(-c2ccco2)c(C(=O)c2ccccn2)s1 | 184 to 185 °C
33 | CC(C#N)N1CCC(c2noc3cc(F)ccc23)CC1 (stereo not given) | 133 to 134 °C
34 | CC[C@H](C)[C@H](NC(=O)N(C)Cc1ccccn1)C(=O)NC(Cc1ccccc1)C(O)C(O)C(Cc1ccccc1)NC(=O)[C@@H](NC(=O)N(C)Cc1ccccn1)[C@@H](C)CC (stereo not given in full) | 160 to 161 °C

Second part, the compound after the results:

Row | melting point | SMILES
35 | 93 to 94 °C | CC(NC(=O)C(Cc1ccc(OCc2ccccc2)cc1)NC(=O)C(COCc1ccccc1)NC(=O)C(Cc1c[nH]c2ccccc12)NC(=O)OC(C)(C)C)C(=O)O (stereo not given) (Boc-WS(Bn)Y(Bn)A-OH; configuration not given here)
36 | 106 to 110 °C | COc1cc(C(=O)NC2OC(COC(C)=O)C(OC3OC(COC(C)=O)C(OC(C)=O)C(OC(C)=O)C3OC(C)=O)C(OC(C)=O)C2OC(C)=O)ccc1Cl (stereo not given)
37 | 135 to 137 °C | COc1ccc(OC)c(CCNC(=O)N[C@H](Cc2cc(Br)c(O)c(Br)c2)C(=O)N[C@@H](CCCCN)C(=O)N2CCN(c3ccncc3)CC2)c1
38 | 173 to 175 °C | CC(CCOc1c(I)cc(I)cc1I)Oc1c(I)cc(I)cc1I (stereo not given)
39 | 77 to 78 °C | CCCCCCCCCCCCCCCC(=O)OCC1OC(n2cc(F)c(=O)n(C(=O)c3cccc(OC)c3OC)c2=O)CC1OC(=O)CCCCCCCCCCCCCCC (stereo not given)
40 | 191 to 192 °C | CCOCc1nc2c(N)nc3cc(-c4cccnc4)ccc3c2n1CC1CCN(C(=O)C2CCCO2)CC1 (stereo not given)
41 | 36 °C | C=CC(=O)OCCCCCCOc1ccc(C(=O)Oc2ccc(OC(=O)c3ccc(OCCCCCCOC(=O)C=C)cc3)c(C(=O)OCCCCCCCCOC(=O)c3ccco3)c2)cc1
42 | 146 to 149 °C | CS(C)(=O)=NC(=O)c1cc(O)ccc1[N+](=O)[O-]
43 | 176 to 178 °C | CC(C)[C@H](NC(=O)N(C)Cc1nccs1)C(=O)N[C@@H](Cc1ccccc1)[C@@H](O)[C@H](O)[C@H](Cc1ccccc1)NC(=O)[C@@H](NC(=O)N(C)Cc1nccs1)C(C)C
44 | 68.3 °C | C=C(C)C(=O)OCCCCCCCCCCCOc1ccc(-c2nc(-c3ccccc3)nc(-c3ccc(OCCCCCCCCCCCOC(=O)C(=C)C)cc3O)n2)c(O)c1
45 | 47 to 50 °C | NS(=O)(=O)c1ccc(-c2c(-c3ccccc3)noc2CO[N+](=O)[O-])cc1
46 | 124 to 126 °C | CCC(C)C1NC(=O)C(NC(=O)C(CC(C)C)N(C)C(C)=O)C(C)OC(=O)C(Cc2ccc(OC)cc2)N(C)C(=O)C2CCCN2C(=O)C(CC(C)C)NC(=O)C(C)C(=O)C(C(C)C)OC(=O)CC1O (stereo not given) (Ac-[NMeL]T[X6]LP[NMeY](Me); ester 2-C; configuration not given here)
47 | 112 to 115 °C | COc1ccc([C@@H]2Sc3ccccc3N(CCN(C)C)C(=O)[C@@H]2OC(=O)CCC(=O)O[C@H]2C(=O)N(CCN(C)C)c3ccccc3S[C@H]2c2ccc(OC)cc2)cc1 (relative stereo)
48 | 178 to 180 °C | CC(=O)OC1C(=O)C2(C)C(O)CC3OCC3(OC(C)=O)C2C(OC(=O)c2ccccc2)C2(O)CC(OC(=O)C(OC(=O)CCC(=O)O)C(NC(=O)c3ccccc3)c3ccccc3)C(C)=C1C2(C)C (stereo not given)
49 | 168 to 170 °C | CCCCCCCCCCCCSc1nc(N(C2CC(C)(C)NC(C)(C)C2)C2CC(C)(C)NC(C)(C)C2)nc(N(C2CC(C)(C)NC(C)(C)C2)C2CC(C)(C)NC(C)(C)C2)n1
50 | 191 °C | CON=C(C(=O)NC1C(=O)N2C1CSC(c1ccc(Cl)cc1)C2(O)C(=O)OC(C)(C)C)c1csc(NC(c2ccccc2)(c2ccccc2)c2ccccc2)n1 (stereo not given)
51 | 158 °C | COCCOCOc1cc(C(ON=C(C(=O)O)c2csc(NC(c3ccccc3)(c3ccccc3)c3ccccc3)n2)C(=O)OC(c2ccccc2)c2ccccc2)cc(C#N)c1OCOCCOC (stereo not given)
52 | 86.5 °C | CCCCCCCCCCOc1cc2c(O)c(C(=O)OCC)cnc2cc1OCC
53 | 179 to 180 °C | CCCCCCCCCCCS(=O)(=O)c1cc2c3cc(S(=O)(=O)CCCCCCCCCCC)c(S(=O)(=O)CCCCCCCCCCC)cc3c3cc(S(=O)(=O)CCCCCCCCCCC)c(S(=O)(=O)CCCCCCCCCCC)cc3c2cc1S(=O)(=O)CCCCCCCCCCC
54 | 75 to 81 °C | Cc1nc(-c2cncc(F)c2)sc1NC(=O)C(C)CS(C)(=O)=NC#N (stereo not given)
55 | 65 to 67 °C | CCCCCCCCCCCCCCCC(=O)C(O)C(O)(C(=O)c1cccc(NC(=O)C(CSC(C)=O)Cc2ccccc2)c1)C(O)C(=O)CCCCCCCCCCCCCCC (stereo not given)
